We go through 4 compounds from article PMC7827406, “Structure–Activity Relationship (SAR) Study of Spautin-1 to Entail the Discovery of Novel NEK4 Inhibitors” (International Journal of Molecular Sciences, 2021).

What all share (experiment): biochemical
What all share (design): Eurofins KinaseProfiler full panel at Km ATP, residual kinase activity (%) relative to DMSO

In one experiment the target is T1, Snk(h) (Homo sapiens, UniProt Q9NYY3).
T1 construct: gene PLK2
On the procedure:
(§1) Eurofins performed a “Full KP Panel [Km ATP], KinaseProfile” which contains 429 radiometric kinase activity assays. The remaining kinase activity (%) was determined after treatment with the compounds at a concentration of 10 µM (Cfr. supporting information). Since we could not confirm the interaction between Spautin-1 analogues and USP13, a kinase screening was performed using a set of four compounds (Spautin-1 and three analogues) to discover off-targets and identify kinases that are potentially responsible for the reduction in cell viability observed in our screen (Table 2). The KINOMEscan from Eurofins was performed (see Table S1). This screen consists of a competitive binding assay in which the DNA-tagged kinase is incubated with one of the compounds in the presence of immobilized active site binding ligands. Binding of the compounds to the kinase hampers the binding of the kinase to the ligands and this inhibition was quantified by qPCR. The residual kinase activity, which represents the percentage of kinase attached to the immobilized ligands, was determined for 428 kinases at a standard screening concentration of 10 µM of the compounds dissolved in DMSO [61].

In a further experiment the target is NEK4 (Homo sapiens, UniProt P51957). On the procedure: as §1
In another experiment the target is T2, CaMKIIγ(h) (Homo sapiens, UniProt Q13555).
T2 construct: gene CAMK2G
On the procedure: as §1

A further experiment deals with T3, Tec(h) activated (Homo sapiens, UniProt P42680).
T3 sequence (P42680 1-631): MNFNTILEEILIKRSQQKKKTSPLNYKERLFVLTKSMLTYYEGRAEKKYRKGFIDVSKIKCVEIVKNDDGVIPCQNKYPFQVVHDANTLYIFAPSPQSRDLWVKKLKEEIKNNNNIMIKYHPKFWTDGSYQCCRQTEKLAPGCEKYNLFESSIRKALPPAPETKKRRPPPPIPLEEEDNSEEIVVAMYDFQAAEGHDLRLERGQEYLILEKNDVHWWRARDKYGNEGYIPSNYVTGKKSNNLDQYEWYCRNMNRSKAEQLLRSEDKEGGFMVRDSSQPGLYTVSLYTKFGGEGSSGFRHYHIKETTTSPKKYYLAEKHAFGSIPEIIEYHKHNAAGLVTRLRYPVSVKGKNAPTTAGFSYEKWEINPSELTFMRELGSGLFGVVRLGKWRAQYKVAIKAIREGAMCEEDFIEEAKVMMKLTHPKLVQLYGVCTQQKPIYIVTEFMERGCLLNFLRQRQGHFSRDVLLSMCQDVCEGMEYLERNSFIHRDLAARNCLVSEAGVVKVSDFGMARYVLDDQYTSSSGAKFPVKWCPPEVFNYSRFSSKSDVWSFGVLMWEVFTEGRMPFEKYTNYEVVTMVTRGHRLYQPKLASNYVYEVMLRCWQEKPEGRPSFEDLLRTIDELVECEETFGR
On the procedure:
as §1

The target of another experiment is T4, MINK(h) (Homo sapiens, UniProt Q8N4C8).
T4 construct: gene MINK1
On the procedure:
as §1

The next experiment addresses T5, CK1δ(h) (Homo sapiens, UniProt P48730).
T5 construct: gene CSNK1D
On the procedure:
as §1

In another experiment the target is EphA2(h) (Homo sapiens, UniProt P29317). On the procedure:
as §1

Another experiment addresses T6, PRAK(h) (Homo sapiens, UniProt Q8IW41).
T6 construct: gene MAPKAPK5
T6 sequence (Q8IW41 1-473): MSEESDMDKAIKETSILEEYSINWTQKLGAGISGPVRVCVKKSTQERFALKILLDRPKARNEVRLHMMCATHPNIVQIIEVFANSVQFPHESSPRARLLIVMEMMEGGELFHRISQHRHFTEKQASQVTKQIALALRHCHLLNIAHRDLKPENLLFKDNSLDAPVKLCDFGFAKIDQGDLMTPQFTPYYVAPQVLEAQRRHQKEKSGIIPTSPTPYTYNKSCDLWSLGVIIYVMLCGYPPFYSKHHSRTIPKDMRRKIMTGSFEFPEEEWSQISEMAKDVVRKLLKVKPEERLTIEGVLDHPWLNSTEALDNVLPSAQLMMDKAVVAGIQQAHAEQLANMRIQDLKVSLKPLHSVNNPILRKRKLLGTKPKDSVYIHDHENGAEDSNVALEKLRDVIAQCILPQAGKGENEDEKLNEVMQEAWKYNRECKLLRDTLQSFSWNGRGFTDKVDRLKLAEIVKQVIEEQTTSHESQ
On the procedure:
as §1

The target of another experiment is T7, Txk(h) (Homo sapiens, UniProt P42681).
T7 sequence (P42681 1-527): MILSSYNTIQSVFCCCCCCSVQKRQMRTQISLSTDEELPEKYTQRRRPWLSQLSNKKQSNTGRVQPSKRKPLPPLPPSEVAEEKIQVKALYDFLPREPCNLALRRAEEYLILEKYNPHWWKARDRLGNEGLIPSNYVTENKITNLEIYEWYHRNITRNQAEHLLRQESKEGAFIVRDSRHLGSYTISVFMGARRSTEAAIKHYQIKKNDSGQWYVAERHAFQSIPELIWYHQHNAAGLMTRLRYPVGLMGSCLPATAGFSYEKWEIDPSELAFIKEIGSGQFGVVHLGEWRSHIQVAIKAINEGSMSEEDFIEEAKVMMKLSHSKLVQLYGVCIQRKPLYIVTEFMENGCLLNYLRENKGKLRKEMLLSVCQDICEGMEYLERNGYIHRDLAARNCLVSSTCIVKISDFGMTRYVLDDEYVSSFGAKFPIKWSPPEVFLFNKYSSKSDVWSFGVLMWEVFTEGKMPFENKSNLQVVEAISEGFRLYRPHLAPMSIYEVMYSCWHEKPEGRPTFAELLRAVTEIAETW
On the procedure:
as §1

The mark [1] stands for this setting: read-out: Residual activity (%) 5at.
Setting [2] is: read-out: Residual activity (%) 5ay.
The mark [3] stands for this setting: read-out: Residual activity (%) 5as.
[4] abbreviates: read-out: Residual activity (%) Spautin-1 5aa.

Where two headings read alike, the source gives them in different places.

T2 sequence (Q13555 whole entry): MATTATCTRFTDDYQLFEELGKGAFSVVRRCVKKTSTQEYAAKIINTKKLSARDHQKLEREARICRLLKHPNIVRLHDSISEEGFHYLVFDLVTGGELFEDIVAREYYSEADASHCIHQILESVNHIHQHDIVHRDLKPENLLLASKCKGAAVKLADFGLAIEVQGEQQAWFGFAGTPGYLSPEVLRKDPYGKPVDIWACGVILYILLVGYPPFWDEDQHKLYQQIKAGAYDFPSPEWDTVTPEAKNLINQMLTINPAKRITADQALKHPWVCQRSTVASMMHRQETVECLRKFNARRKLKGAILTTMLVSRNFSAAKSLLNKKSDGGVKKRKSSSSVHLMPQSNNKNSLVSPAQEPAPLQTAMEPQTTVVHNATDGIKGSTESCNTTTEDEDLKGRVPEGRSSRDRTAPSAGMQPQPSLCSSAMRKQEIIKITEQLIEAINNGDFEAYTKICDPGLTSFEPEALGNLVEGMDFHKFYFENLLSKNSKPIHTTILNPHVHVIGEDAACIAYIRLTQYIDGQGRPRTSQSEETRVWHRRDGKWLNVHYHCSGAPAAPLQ
T1 sequence (Q9NYY3 whole entry): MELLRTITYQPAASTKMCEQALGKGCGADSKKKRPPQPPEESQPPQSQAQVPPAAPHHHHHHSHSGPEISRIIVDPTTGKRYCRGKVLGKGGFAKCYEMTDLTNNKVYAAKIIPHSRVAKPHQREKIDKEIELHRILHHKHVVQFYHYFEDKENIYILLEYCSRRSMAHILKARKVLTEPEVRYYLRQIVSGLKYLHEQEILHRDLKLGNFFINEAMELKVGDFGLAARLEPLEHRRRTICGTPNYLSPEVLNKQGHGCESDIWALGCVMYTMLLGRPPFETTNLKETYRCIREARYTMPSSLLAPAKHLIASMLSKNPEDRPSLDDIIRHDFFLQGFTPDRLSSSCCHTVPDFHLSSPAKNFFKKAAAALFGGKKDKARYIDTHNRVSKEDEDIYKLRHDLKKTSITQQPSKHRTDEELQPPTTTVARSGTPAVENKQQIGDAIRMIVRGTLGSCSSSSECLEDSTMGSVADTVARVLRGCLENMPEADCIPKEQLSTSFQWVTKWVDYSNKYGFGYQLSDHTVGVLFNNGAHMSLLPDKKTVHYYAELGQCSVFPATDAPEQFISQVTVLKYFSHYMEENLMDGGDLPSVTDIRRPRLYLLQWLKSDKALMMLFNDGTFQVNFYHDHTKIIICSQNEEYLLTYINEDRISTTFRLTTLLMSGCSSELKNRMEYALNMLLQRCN
T5 sequence (P48730 whole entry): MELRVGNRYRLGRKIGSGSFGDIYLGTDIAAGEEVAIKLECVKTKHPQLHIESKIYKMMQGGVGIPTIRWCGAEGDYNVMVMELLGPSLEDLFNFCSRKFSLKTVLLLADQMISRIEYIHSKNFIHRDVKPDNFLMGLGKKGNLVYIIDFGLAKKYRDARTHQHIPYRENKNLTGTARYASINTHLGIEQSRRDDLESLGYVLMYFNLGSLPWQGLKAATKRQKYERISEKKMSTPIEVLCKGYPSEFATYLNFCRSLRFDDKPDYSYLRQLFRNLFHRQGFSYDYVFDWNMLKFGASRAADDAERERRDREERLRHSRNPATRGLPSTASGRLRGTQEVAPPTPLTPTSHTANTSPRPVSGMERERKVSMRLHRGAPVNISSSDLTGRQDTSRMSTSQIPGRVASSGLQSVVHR
T4 sequence (Q8N4C8 whole entry): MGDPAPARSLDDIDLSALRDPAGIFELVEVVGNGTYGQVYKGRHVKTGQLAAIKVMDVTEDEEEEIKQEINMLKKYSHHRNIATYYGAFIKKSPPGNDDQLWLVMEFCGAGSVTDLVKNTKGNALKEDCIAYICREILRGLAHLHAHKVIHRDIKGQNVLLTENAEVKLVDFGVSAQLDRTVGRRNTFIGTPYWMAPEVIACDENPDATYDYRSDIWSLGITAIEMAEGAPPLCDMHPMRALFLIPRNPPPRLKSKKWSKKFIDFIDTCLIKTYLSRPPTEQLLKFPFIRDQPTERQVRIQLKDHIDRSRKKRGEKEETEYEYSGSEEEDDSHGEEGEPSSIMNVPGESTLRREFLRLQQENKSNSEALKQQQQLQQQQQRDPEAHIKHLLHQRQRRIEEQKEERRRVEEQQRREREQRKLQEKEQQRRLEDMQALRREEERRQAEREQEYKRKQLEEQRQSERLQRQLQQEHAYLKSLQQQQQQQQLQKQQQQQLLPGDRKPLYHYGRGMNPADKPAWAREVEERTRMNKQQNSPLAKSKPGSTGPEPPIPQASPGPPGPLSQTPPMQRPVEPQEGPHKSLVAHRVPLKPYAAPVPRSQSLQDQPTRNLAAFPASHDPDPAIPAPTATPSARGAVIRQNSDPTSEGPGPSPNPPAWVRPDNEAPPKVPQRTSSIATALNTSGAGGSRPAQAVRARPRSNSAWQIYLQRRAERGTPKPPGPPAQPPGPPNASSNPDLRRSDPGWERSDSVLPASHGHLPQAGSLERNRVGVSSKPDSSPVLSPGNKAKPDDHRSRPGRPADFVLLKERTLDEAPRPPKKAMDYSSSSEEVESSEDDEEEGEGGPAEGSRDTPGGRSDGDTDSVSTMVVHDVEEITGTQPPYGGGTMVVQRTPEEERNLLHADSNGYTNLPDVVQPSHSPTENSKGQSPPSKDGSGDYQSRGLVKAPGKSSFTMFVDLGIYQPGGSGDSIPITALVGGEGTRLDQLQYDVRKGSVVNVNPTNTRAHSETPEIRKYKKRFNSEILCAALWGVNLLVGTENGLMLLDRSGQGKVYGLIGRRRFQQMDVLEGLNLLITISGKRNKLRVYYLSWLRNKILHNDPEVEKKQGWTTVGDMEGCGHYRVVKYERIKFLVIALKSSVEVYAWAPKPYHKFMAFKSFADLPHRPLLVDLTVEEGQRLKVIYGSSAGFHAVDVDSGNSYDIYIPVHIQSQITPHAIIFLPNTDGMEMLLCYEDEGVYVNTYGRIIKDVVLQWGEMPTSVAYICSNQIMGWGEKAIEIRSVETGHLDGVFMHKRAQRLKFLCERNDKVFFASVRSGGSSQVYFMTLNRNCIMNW
Chain of EphA2(h) (P29317 whole entry): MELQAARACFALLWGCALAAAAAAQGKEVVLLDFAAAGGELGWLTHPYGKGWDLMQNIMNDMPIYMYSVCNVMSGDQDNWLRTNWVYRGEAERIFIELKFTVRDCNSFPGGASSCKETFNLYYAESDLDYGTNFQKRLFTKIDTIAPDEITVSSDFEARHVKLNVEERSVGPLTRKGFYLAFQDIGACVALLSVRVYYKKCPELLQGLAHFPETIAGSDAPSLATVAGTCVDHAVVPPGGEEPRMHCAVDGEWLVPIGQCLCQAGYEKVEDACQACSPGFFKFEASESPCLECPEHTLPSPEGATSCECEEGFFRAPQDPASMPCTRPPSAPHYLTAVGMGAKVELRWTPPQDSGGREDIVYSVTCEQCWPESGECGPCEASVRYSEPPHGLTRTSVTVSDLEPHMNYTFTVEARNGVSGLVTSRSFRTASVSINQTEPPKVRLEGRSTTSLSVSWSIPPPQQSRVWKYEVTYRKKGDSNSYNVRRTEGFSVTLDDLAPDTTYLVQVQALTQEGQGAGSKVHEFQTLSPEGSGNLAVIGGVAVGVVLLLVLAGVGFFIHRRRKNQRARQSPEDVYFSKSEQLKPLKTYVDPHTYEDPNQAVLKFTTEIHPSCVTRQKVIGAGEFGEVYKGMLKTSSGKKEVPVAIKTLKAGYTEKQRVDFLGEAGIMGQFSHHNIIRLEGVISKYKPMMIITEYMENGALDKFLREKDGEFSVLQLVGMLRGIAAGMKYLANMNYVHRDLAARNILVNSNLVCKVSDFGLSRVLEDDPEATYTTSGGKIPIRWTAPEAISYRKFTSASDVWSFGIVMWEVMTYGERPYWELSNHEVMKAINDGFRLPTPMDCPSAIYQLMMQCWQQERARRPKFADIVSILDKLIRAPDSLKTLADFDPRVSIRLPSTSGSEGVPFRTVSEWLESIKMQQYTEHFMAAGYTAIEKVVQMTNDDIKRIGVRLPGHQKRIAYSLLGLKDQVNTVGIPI
Chain of NEK4 (P51957 whole entry): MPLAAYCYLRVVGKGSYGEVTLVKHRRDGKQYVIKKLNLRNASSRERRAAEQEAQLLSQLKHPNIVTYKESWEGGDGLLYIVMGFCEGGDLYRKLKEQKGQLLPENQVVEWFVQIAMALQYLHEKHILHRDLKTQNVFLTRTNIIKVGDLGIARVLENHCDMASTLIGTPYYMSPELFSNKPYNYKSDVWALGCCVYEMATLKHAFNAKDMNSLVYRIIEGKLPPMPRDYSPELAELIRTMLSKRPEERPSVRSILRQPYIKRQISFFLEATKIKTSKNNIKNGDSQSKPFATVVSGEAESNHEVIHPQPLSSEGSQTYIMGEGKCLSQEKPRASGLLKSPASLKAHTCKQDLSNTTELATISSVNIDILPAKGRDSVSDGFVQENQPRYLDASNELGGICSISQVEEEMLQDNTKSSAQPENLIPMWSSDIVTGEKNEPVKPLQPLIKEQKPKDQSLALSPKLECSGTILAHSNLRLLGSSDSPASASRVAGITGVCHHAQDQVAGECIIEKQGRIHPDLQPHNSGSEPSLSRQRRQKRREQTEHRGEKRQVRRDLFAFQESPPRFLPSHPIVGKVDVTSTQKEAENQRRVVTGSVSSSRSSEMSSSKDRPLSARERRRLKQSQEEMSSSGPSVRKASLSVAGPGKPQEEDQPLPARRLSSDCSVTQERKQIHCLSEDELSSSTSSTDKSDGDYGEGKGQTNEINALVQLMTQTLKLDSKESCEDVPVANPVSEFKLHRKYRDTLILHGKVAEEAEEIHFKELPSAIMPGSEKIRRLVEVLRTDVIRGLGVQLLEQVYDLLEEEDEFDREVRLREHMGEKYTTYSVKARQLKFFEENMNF

Turning to `Fc1ccc2ncnc(NCCc3ccc(Cl)cc3)c2c1` [5at, N-[2-(4-Chlorophenyl)Ethyl]-6-Fluoro-4-Quinazolinamine], the remaining activity at 10 µM at Snk(h) (setting [1]) came out at 100%; on NEK4 (setting [1]), 12%; at CaMKIIγ(h) (setting [1]) it was 75%; on Tec(h) activated (setting [1]), 86%; on MINK(h) (setting [1]), 89%; at CK1δ(h) (setting [1]), 80%. Also, the values for the remaining activity at 10 µM at EphA2(h) (setting [1]), on PRAK(h) (setting [1]) and on Txk(h) (setting [1]) were 99%, 91% and 82%, respectively.

For the compound `COc1ccc2ncnc(Nc3cccc(F)c3)c2c1` [5ay, N-(3-Fluorophenyl)-6-Methoxy-4-Quinazolinamine], the remaining activity at 10 µM worked out at 80% on Snk(h) (setting [2]); 30% at NEK4 (setting [2]); 41% on CaMKIIγ(h) (setting [2]); 76% on Tec(h) activated (setting [2]); 67% on MINK(h) (setting [2]); 86% on CK1δ(h) (setting [2]). Also, the remaining activity at 10 µM on EphA2(h) (setting [2]) was 75%; on PRAK(h) (setting [2]), 102%; at Txk(h) (setting [2]) it was 85%.

For the compound `Fc1ccc(CCNc2ncnc3ccc(F)cc23)cc1` [5as, 6-Fluoro-N-[2-(4-Fluorophenyl)Ethyl]-4-Quinazolinamine], the remaining activity at 10 µM at Snk(h) (setting [3]) is 89%; at CaMKIIγ(h) (setting [3]), 74%; at Tec(h) activated (setting [3]), 100%; at MINK(h) (setting [3]), 88%; on CK1δ(h) (setting [3]), 80%; at EphA2(h) (setting [3]), 90%. For the same compound, the figures for the remaining activity at 10 µM on PRAK(h) (setting [3]) and on Txk(h) (setting [3]) were 108% and 83%, respectively.

Consider `Fc1ccc(CNc2ncnc3ccc(F)cc23)cc1` [5aa, 6-Fluoro-N-(4-fluorobenzyl)-4-Quinazolinamine], for which the remaining activity at 10 µM was determined as 98% at Snk(h) (setting [4]); 71% on NEK4 (setting [4]); 83% at CaMKIIγ(h) (setting [4]); 78% on Tec(h) activated (setting [4]); 86% at MINK(h) (setting [4]); 74% at CK1δ(h) (setting [4]). In addition, the remaining activity at 10 µM turned out to be 73% at EphA2(h) (setting [4]), 107% on PRAK(h) (setting [4]) and 92% on Txk(h) (setting [4]).
